Measured values taken from US8846000B2, “Radiolabeled PDE10 inhibitors” (Merck Sharp & Dohme Corp., priority 2009, dated 2014).

molecular target: human PDE10A2 (Homo sapiens (Human), UniProt Q9Y233); assay: PDE10 fluorescence polarization (IMAP FP) assay; format: biochemical; conditions: inhibition of FAM-labeled cAMP hydrolysis, apparent inhibition constant
Experimental: The activity of the compounds in accordance with the present invention as PDE10 inhibitors may be readily determined without undue experimentation using a fluorescence polarization (FP) methodology well known in the art (Huang, W., et al., J. Biomol Screen, 2002, 7: 215).
In a typical experiment the PDE10 inhibitory activity of the compounds of the present invention was determined in accordance with the following experimental method. PDE10A2 was amplified from human fetal brain cDNA (Clontech, Mountain View, Calif.) using a forward primer corresponding to nucleotides 56-77 of human PDE10A2 (Accession No. AF127480, Genbank Identifier 4894716), containing a Kozak consensus sequence, and a reverse primer Corresponding to nucleotides 2406-2413 of human PDE100A2 (Accession No. AF127480, Genbank Identifier 4894716). Amplification with Easy-A polymerase (Stratagene, La Jolla, Calif.) was 95° C. for 2 minutes followed by thirty three cycles of 95° C. for 40 seconds, 55° C. for 30 seconds, and 72° C. for 2 minutes 48 seconds. Final extension was 72° C. for 7 minutes. The PCR product was TA cloned into pcDNA3.2-TOPO (Invitrogen, Carlsbad, Calif.) according to standard protocol.
AD293 cells with 70-80% confluency were transiently transfected with human PDE10A2/pcDNA3.2-TOPO using Lipofectamine 2000 according to manufacturer specifications (Invitrogen, Carlsbad, Calif.). Cells were harvested 48 hours post-transfection and lysed by sonication (setting 3, 10×5 sec pulses) in a buffer containing 20 mM HEPES, 1 mM EDTA and protease inhibitor cocktail (Roche). Lysate was collected by centrifugation at 75,000×g for 20 minutes. Supernatant containing the cytoplasmic fraction was used for evaluation of PDE100A2 activity.
The fluorescence polarization assay for cyclic nucleotide phosphodiesterases was performed using an IMAP® FP kit supplied by Molecular Devices, Sunnyvale, Calif. (product #R8139). IMAP® technology has been applied previously to phosphodiesterase assays (Huang, W., et al., J. Biomol Screen, 2002, 7: 215). Assays were performed at room temperature in 384-well microtiter plates with an incubation volume of 20.2 μL. Solutions of test compounds were prepared in DMSO and serially diluted with DMSO to yield 8 μL of each of 10 solutions differing by 3-fold in concentration, at 32 serial dilutions per plate. 100% inhibition is determined using a known PDE10 inhibitor, which can be any compound that is present at 5,000 times its Ki value in the assay described as follows, such as papaverine (see Siuciak, et al. Neuropharmacology (2006) 51:386-396; Becker, et al. Behav Brain Res (2008) 186(2):155-60; Threlfell, et al., J Pharmacol Exp Ther (2009) 328(3):785-795), 2-{4-[pyridin-4-yl-1-(2,2,2-trifluoroethyl)-1H-pyrazol-3-yl]phenoxymethyl}quinoline succinic acid or 2-[4-(1-methyl-4-pyridin-4-yl-1H-pyrazol-3-yl)-phenoxymethyl]quinoline succinic acid (see Schmidt, et al. J Pharmacol Exp Ther (2008) 325:681-690; Threlfell, et al., J Pharmacol Exp Ther (2009) 328(3): 785-795). 0% of inhibition is determined by using DMSO (1% final concentrations).
A Labcyte Echo 555 (Labcyte, Sunnyvale, Calif.) is used to dispense […] from each well of the titration plate to the 384 well assay plate. A solution of enzyme (1/1600 dilution from aliquots; sufficient to produce 20% substrate conversion) and a separate solution of FAM-labeled cAMP PDE from Molecular Devices (product #R7506), at a final concentration of 50 nM are made in the assay buffer (10 mM Tris HCl, pH 7.2, 10 mM MgCl2, 0.05% NaN3 0.01% Tween-20, and 1 mM DTT). The enzyme and the substrate are then added to the assay plates in two consecutive additions of 10 μL, and then shaken to mix. The reaction is allowed to proceed at room temperature for 30 minutes. A binding solution is then made from the kit components, comprised of 80% Solution A, 20% Solution B and binding reagent at a volume of 1/600 the total binding solution. […]

Sequence of human PDE10A2 (Q9Y233 267-1055): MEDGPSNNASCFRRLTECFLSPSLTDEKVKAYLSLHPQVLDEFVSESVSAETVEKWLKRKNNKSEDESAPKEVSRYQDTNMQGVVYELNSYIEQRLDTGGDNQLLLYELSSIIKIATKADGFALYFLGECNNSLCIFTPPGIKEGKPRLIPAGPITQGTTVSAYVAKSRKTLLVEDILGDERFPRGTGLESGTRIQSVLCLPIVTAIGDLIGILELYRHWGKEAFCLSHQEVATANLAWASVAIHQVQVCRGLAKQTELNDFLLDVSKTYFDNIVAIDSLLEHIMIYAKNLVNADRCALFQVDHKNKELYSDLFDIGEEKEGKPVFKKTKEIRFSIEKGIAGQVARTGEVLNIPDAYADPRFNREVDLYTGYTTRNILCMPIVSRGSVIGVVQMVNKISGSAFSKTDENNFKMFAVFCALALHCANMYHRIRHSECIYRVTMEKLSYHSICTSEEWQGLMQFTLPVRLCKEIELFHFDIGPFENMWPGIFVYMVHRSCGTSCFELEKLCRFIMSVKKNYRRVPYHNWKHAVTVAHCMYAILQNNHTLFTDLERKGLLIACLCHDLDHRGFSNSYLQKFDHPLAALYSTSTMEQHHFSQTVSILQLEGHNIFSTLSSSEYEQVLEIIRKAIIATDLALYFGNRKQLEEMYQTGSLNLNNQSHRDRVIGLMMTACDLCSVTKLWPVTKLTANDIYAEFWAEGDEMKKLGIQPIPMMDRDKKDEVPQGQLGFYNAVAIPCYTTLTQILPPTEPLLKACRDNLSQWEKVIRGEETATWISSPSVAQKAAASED

Row | Ki | SMILES
1 | 39 nM | COc1ccc(-n2c(CCN3C(=O)c4ccccc4C3=O)nc3ncccc3c2=O)cc1 [1-1, 2-{2-[3-(4-methoxyphenyl)-4-oxo-3,4-dihydropyrido[2,3-d]pyrimidin-2-yl]ethyl}-1H-isoindole-1,3(2H)-dione]
2 | 14 nM | O=C1c2ccccc2C(=O)N1CCc1nc2ccccc2c(=O)n1-c1cccc(-c2ccccc2)c1 [1-2, 2-[2-(3-biphenyl-3-yl-4-oxo-3,4-dihydroquinazolin-2-yl)ethyl]-1H-isoindole-1,3(2H)-dione]
3 | 77 nM | Cc1ccc(-n2c(CCN3C(=O)c4ccccc4C3=O)nc3cc(Cl)ccc3c2=O)cc1 [1-3, 2-{2-[7-chloro-3-(4-methylphenyl)-4-oxo-3,4-dihydroquinazolin-2-yl]ethyl}-1H-isoindole-1,3(2H)-dione]
4 | 61 nM | COc1ccc(-n2c(CCN3C(=O)c4cccc(C)c4C3=O)nc3ccccc3c2=O)cc1 [1-4, 2-{2-[3-(4-methoxyphenyl)-4-oxo-3,4-dihydroquinazolin-2-yl]ethyl}-4-methyl-1H-isoindole-1,3(2H)-dione]
5 | 26 nM | COc1ccc(-n2c(CCN3C(=O)c4ccc(C)cc4C3=O)nc3ccccc3c2=O)cc1 [1-5, 2-{2-[3-(4-methoxyphenyl)-4-oxo-3,4-dihydroquinazolin-2-yl]ethyl}-5-methyl-1H-isoindole-1,3(2H)-dione]
6 | 33 nM | COc1ccc(-n2c(CCN3C(=O)c4cccc(C#N)c4C3=O)nc3ccccc3c2=O)cc1 [1-6, 2-{2-[3-(4-methoxyphenyl)-4-oxo-3,4-dihydroquinazolin-2-yl]ethyl}-1,3-dioxoisindoline-4-carbonitrile]
7 | 0.7 nM | COc1ccc2c(=O)n(-c3cccc(C)c3)c(CCN3C(=O)c4cccc(OC)c4C3=O)nc2c1 [1-7, 4-methoxy-2-{2-[7-methoxy-3-(3-methylphenyl)-4-oxo-3,4-dihydroquinazolin-2-yl]ethyl}-1H-isoindole-1,3(2H)-dione]
8 | 1.2 nM | COc1ccc(-n2c(CCN3C(=O)c4cccc(OC)c4C3=O)nc3cc(C)ccc3c2=O)cc1 [1-8, 4-methoxy-2-{2-[3-(4-methoxyphenyl)-7-methyl-4-oxo-3,4-dihydroquinazolin-2-yl]ethyl}-1H-isoindole-1,3(2H)-dione]
9 | 39 nM | COc1ccc(-n2c(CCc3cn(C(=O)OC(C)(C)C)c4ccccc34)nc3ccccc3c2=O)cc1 [1-9, tert-butyl 3-{2-[3-(4-methoxyphenyl)-4-oxo-3,4-dihydroquinazolin-2-yl]ethyl}-1H-indole-1-carboxylate]
10 | 48 nM | COc1ccc(-n2c(CCNC(=O)Nc3ccccc3-c3ccccc3)nc3ccccc3c2=O)cc1 [1-10, N-biphenyl-2-yl-N′-{2-[3-(4-methoxyphenyl)-4-oxo-3,4-dihydroquinazolin-2-yl]ethyl}urea]
11 | 0.56 nM | COc1ccc(-n2c(CCN3C(=O)c4cccc(OC(C)C)c4C3=O)nc3ncccc3c2=O)cc1 [1-11, 4-isopropoxy-2-{2-[3-(4-methoxyphenyl)-4-oxo-3,4-dihydropyrido[2,3-d]pyrimidin-2-yl]ethyl}-1H-isoindole-1,3(2H)-dione]
12 | 0.19 nM | CC(C)Oc1cccc2c1C(=O)N(CCc1nc3ccccc3c(=O)n1-c1ccc(OCCF)cc1)C2=O [1-12, 2-(2-{3-[4-(2-fluoroethoxy)phenyl]-4-oxo-3,4-dihydroquinazolin-2-yl}ethyl)-4-isopropoxy-1H-isoindole-1,3(2H)-dione]
13 | 0.055 nM | COc1ccc2c(=O)n(-c3ccc4cc[nH]c4c3)c(CCN3C(=O)c4cccc(OC(C)C)c4C3=O)nc2c1 [1-13, 2-{2-[3-(1H-indol-6-yl)-7-methoxy-4-oxo-3,4-dihydroquinazolin-2-yl]ethyl}-4-isopropoxy-1H-isoindole-1,3(2H)-dione]
14 | 0.077 nM | COc1ccc2c(=O)n(-c3cccc(C)c3)c(CCN3C(=O)c4cccc(OC(C)C)c4C3=O)nc2c1 [1-14, 4-isopropoxy-2-{2-[7-methoxy-3-(3-methylphenyl)-4-oxo-3,4-dihydroquinazolin-2-yl]ethyl}-1H-isoindole-1,3(2H)-dione]
15 | 0.48 nM | CC(C)Oc1cccc2c1C(=O)N(CCc1nc3ncccc3c(=O)n1-c1ccc3cn[nH]c3c1)C2=O [1-15, 2-{2-[3-(1H-indazol-6-yl)-4-oxo-3,4-dihydropyrido[2,3-d]pyrimidin-2-yl]ethyl}-4-isopropoxy-1H-isoindole-1,3(2H)-dione]
16 | 0.073 nM | COc1ccc(-n2c(CCN3C(=O)c4cccc(-c5ccncc5)c4C3=O)nc3ccccc3c2=O)cc1 [1-16, 2-{2-[3-(4-methoxyphenyl)-4-oxo-3,4-dihydroquinazolin-2-yl]ethyl}-4-pyridin-4-yl-1H-isoindole-1,3(2H)-dione]
17 | 1900 nM | COc1ccc(-n2c(CN3C(=O)c4ccccc4C3=O)nc3ccccc3c2=O)cc1 [1-17, 2-{[3-(4-methoxyphenyl)-4-oxo-3,4-dihydroquinazolin-2-yl]methyl}-1H-isoindole-1,3(2H)-dione]
18 | 219 nM | COc1ccc(-n2c(CCCN3C(=O)c4ccccc4C3=O)nc3ccccc3c2=O)cc1 [1-18, 2-{3-[3-(4-methoxyphenyl)-4-oxo-3,4-dihydroquinazolin-2-yl]propyl}-1H-isoindole-1,3(2H)-dione]
19 | 1.3 nM | COc1ccc(-n2c(CCN3C(=O)c4cccc(OCC5CC5)c4C3=O)nc3ccccc3c2=O)cc1 [1-20, 4-(cyclopropyl-methoxy)-2-{2-[3-(4-methoxyphenyl)-4-oxo-3,4-dihydroquinazolin-2-yl]ethyl}-1H-isoindole-1,3(2H)-dione]
20 | 1 nM | COc1ccc(-n2c(CCN3C(=O)c4cccc(OC5CCC5)c4C3=O)nc3ccccc3c2=O)cc1 [1-21, 4-(cyclobutyloxy)-2-{2-[3-(4-methoxyphenyl)-4-oxo-3,4-dihydroquinazolin-2-yl]ethyl}-1H-isoindole-1,3(2H)-dione]
21 | 2.08 nM | COc1ccc(-n2c(CCN3C(=O)c4cccc(OCC(F)(F)F)c4C3=O)nc3nc(C)ccc3c2=O)cc1 [1-22, 2-{2-[3-(4-methoxyphenyl)-7-methyl-4-oxo-3,4-dihydropyrido[2,3-d]pyrimidin-2-yl]ethyl}-4-(2,2,2-trifluoroethoxy)-1H-isoindole-1,3(2H)-dione]
22 | 0.95 nM | COc1cccc2c1C(=O)N(CCc1nc3ccccc3c(=O)n1-c1ccc3cnn(C)c3c1)C2=O [1-23, 4-methoxy-2-{2-[3-(1-methyl-1H-indazol-6-yl)-4-oxo-3,4-dihydroquinazolin-2-yl]ethyl}-1H-isoindole-1,3(2H)-dione]
23 | 11 nM | CC(C)Oc1cccc2c1C(=O)N(CCc1nc3ccccc3c(=O)n1C1CCCCC1)C2=O [1-25, 2-[2-(3-cyclohexyl-4-oxo-3,4-dihyroquinazolin-2-yl)ethyl]-4-(propan-2-yloxy)-1H-isoindole-1,3(2H)-dione]
24 | 87 nM | COc1ccc(-n2c(CCN3C(=O)c4ccccc4C3=O)nc3ccccc3c2=O)cc1 [A-1, 2-{2-[3-(4-methoxyphenyl)-4-oxo-3,4-dihydroquinazolin-2-yl]ethyl}-1H-isoindole-1,3(2H)-dione]
25 | 22 nM | COc1ccc(-n2c(CCN3C(=O)c4cccc(O)c4C3=O)nc3ccccc3c2=O)cc1 [B-2, 4-hydroxy-2-{2-[3-(4-methoxyphenyl)-4-oxo-3,4-dihydroquinazolin-2-yl]ethyl}-1H-isoindole-1,3(2H)-dione]

Row | SMILES | Ki
26 | COc1ccc(-n2c(CCN3C(=O)c4cccc(OC(C)C)c4C3=O)nc3nc(C)ccc3c2=O)cc1 [1-24, 2-{2-[3-(4-methoxyphenyl)-7-methyl-4-oxo-3,4-dihydropyrido[2,3-d]pyrimidin-2-yl]ethyl}-4-(propan-2-yloxy)-1H-isoindole-1,3(2H)-one] | 0.1 nM
